According to patent US10695296B2, “Formulations, methods, kit, and dosage forms for improved stability of an active pharmaceutical ingredient” (Asana BioSciences, LLC, priority 2017, dated 2020):
“And” between values parts separate entries of the source, which are not always exact repeats. Equal values may be shown once. Read-outs that look alike come from different tables or passages of the source.

Experiment: PK characteristics in humans (plasma, LC/MS/MS)
Type: in vivo, human
Settings: for accumulation: cancer patients; for dose dependence of Cmax and AUC: 10-400 mg QD and 400 mg BID; for half-life: read-out: T1/2 (converted)
Protocol: A pharmaceutical formulation of the disclosure comprising the active ingredient N-(3-(2-(6-amino-4-(trifluoromethyl)pyridin-3-yl)-4-morpholinopyrido[3,2-d]pyrimidin-6-yl)-2-fluorophenyl)-3-fluoropropane-1-sulfonamide was evaluated for safety/tolerability and preliminary efficacy in eligible human subjects with advanced solid tumors, and the pharmacokinetic (PK) profile of the active ingredient was investigated for each subject. Eligibility criteria for inclusion in this study included:
Fifteen eligible patients were enrolled in total daily dose levels ranging from 10-800 mg per day of the active ingredient, provided as 10-mg, 20-mg, 80-mg and 120-mg tablets for oral administration. Dose escalation is ongoing. All study medication supplies were provided by Asana BioSciences, LLC (Bridgewater, N.J.). The tablets were administered orally every 12-24 hours on an empty stomach (either 1 hour before or 2 hours after a meal or snack) with approximately 240 mL of water. On study days in which there was a single plasma PK sample taken, the subject was instructed to fast for at least 2 hours prior to collection of the PK sample. On study days with multiple plasma PK samples taken, the subject was instructed to fast overnight (at least 8 hours prior to study drug administration) and remain fasting for 2 hours after study drug administration. The date and time of the dose(s) taken prior to or on PK sampling days were collected by the study site or catalogued via a diary card provided to the subject.
An ultra performance liquid chromatographic method was used for the determination of the active ingredient in human EDTA K2 plasma. This method was validated over an analytical range of 0.5 to 500 ng/mL. Calibration standards (CS) and quality control (QC) samples at three or four levels of concentrations were prepared fresh from the appropriate working solutions which were stored at −20° C. The human EDTA K2 plasma used for the preparation of CS and QC samples was obtained from Bioreclamation (Westbury, Pa., USA) and analyzed to determine possible interference with the analyte or the internal standard, and no significant interference was observed. The following parameters were used to determine analyte levels in the plasma samples: […]

[1] = Day 1, 40 mg, individual subjects
[2] = Day 1, 80 mg, individual subjects
[3] = Day 1, 240 mg, individual subjects
[4] = Day 1, 400 QD mg, individual subjects
[5] = Day 1, 400 bid mg, individual subjects
[6] = Day 15, 40 mg, individual subjects
[7] = Day 15, 80 mg, individual subjects
[8] = Day 15, 240 mg, individual subjects
[9] = Day 15, 400 QD mg, individual subjects
[10] = human subjects, listed as active ingredient

Nc1cc(C(F)(F)F)c(-c2nc(N3CCOCC3)c3nc(-c4cccc(NS(=O)(=O)CCCF)c4F)ccc3n2)cn1 [CMPD A, N-(3-(2-(6-amino-4-(trifluoromethyl)pyridin-3-yl)-4-morpholinopyrido[3,2-d]pyrimidin-6-yl)-2-fluorophenyl)-3-fluoropropane-1-sulfonamide]
accumulation (BID administration): ~3 fold
AUC0-24 [1]: 1400 ng·h/mL and 5510 ng·h/mL
Cmax [1]: 96.2 ng/mL and 289 ng/mL
T1/2 [1]: 17.6 h
AUC0-24 [2]: 8090 ng·h/mL and 4010 ng·h/mL
Cmax [2]: 300 ng/mL
Tmax [2]: 24 h
AUC0-24 [3]: 9560 ng·h/mL and 4300 ng·h/mL
Cmax [3]: 744 ng/mL and 295 ng/mL
T1/2 [3]: 23.9 h and 11.0 h
AUC0-24 [4]: 3200 ng·h/mL and 26700 ng·h/mL
Cmax [4]: 264 ng/mL and 1870 ng/mL
T1/2 [4]: 15.6 h
AUC0-24 [5]: 20400 ng·h/mL
Cmax [5]: 1430 ng/mL
T1/2 [5]: 15.0 h
RAUCtau (Day 15, 10 mg, n=1): 1.5
RCmax (Day 15, 10 mg, n=1): 1.3
RAUCtau (Day 15, 20 mg, n=1): 2.1
RCmax (Day 15, 20 mg, n=1): 1.5
AUC0-24 [6]: 2580 ng·h/mL and 9190 ng·h/mL
Cmax [6]: 173 ng/mL and 523 ng/mL
RAUCtau [6]: 1.9 and 2.3
RCmax [6]: 1.8, 1.8
T1/2 [6]: 22.5 h and 47.8 h
AUC0-24 [7]: 21300 ng·h/mL
Cmax [7]: 1179 ng/mL
RAUCtau [7]: 2.4 and 5.3
RCmax [7]: 2.0 and 4.0
Tmax [7]: 24 h
RAUCtau (Day 15, 120 mg, n=3, range): 1.2-1.9
RCmax (Day 15, 120 mg, n=3, range): 0.8-2.4
AUC0-24 [8]: 26000 ng·h/mL and 3740 ng·h/mL
Cmax [8]: 1610 ng/mL and 299 ng/mL
RAUCtau [8]: 2.7 and 0.9
RCmax [8]: 2.2 and 1.0
T1/2 [8]: 29.0 h and 10.3 h
Tmax [8]: (2, 2) hr
AUC0-24 [9]: 41300 ng·h/mL
Cmax [9]: 2930 ng/mL
RAUCtau [9]: 8.0 and 1.55
RCmax [9]: 10.5 and 1.57
T1/2 [9]: 11.7 h
Tmax [9]: 1 h
RAUCtau (Day 15, 400 bid mg, n=1): 3.76
RCmax (Day 15, 400 bid mg, n=1): 2.53
accumulation (QD administration): ~2 fold
variability of pharmacokinetic parameters (human subjects): Moderate to high inter-and intra-subject variability
dose dependence of Cmax and AUC (human subjects): Dose-dependent Cmax and AUC
dose dependence of Cmax and AUC [10]: generally dose-dependent Cmax and AUC
accumulation in AUC at steady state (human subjects, oral tablets): approximately 2 fold
t1/2 (rate of elimination) (human subjects, oral tablets): Moderate rate of elimination (t1/2 10-25 hours)
variability of pharmacokinetic parameters [10]: moderate inter-subject variability
AUC(0-t) (human, plasma, oral, 10 mg, Day 1, 10 mg, n=1, read-out: AUC0-24): 622 ng·h/mL
Cmax (human, plasma, oral, 10 mg, Day 1, 10 mg, n=1, read-out: Cmax): 58 ng/mL
half-life (human, plasma, oral, 10 mg, Day 1, 10 mg, n=1): 966 min
Tmax (human, plasma, oral, 10 mg, Day 1, 10 mg, n=1, read-out: Tmax): 4 h
AUC(0-t) (human, plasma, oral, 10 mg, Day 15, 10 mg, n=1, read-out: AUC0-24): 912 ng·h/mL
Cmax (human, plasma, oral, 10 mg, Day 15, 10 mg, n=1, read-out: Cmax): 74 ng/mL
Tmax (human, plasma, oral, 10 mg, Day 15, 10 mg, n=1, read-out: Tmax): 4 h
AUC(0-t) (human, plasma, oral, 10 mg, steady state, 10 QD mg, n=1, cancer patients, read-out: AUC0-24h): 912 ng·h/mL
Cmax (human, plasma, oral, 10 mg, steady state, 10 QD mg, n=1, cancer patients, read-out: Cmax): 74 ng/mL
Tmax (human, plasma, oral, 10 mg, steady state, 10 QD mg, n=1, cancer patients, read-out: Tmax): 4 h
AUC(0-t) (human, plasma, oral, 20 mg, Day 1, 20 mg, n=1, read-out: AUC0-24): 1480 ng·h/mL
Cmax (human, plasma, oral, 20 mg, Day 1, 20 mg, n=1, read-out: Cmax): 101 ng/mL
half-life (human, plasma, oral, 20 mg, Day 1, 20 mg, n=1): 822 min
Tmax (human, plasma, oral, 20 mg, Day 1, 20 mg, n=1, read-out: Tmax): 8 h
AUC(0-t) (human, plasma, oral, 20 mg, Day 15, 20 mg, n=1, read-out: AUC0-24): 3160 ng·h/mL
Cmax (human, plasma, oral, 20 mg, Day 15, 20 mg, n=1, read-out: Cmax): 149 ng/mL
half-life (human, plasma, oral, 20 mg, Day 15, 20 mg, n=1): 7620 min
Tmax (human, plasma, oral, 20 mg, Day 15, 20 mg, n=1, read-out: Tmax): 8 h
AUC(0-t) (human, plasma, oral, 20 mg, steady state, 20 QD mg, n=1, cancer patients, read-out: AUC0-24h): 3160 ng·h/mL
Cmax (human, plasma, oral, 20 mg, steady state, 20 QD mg, n=1, cancer patients, read-out: Cmax): 149 ng/mL
Tmax (human, plasma, oral, 20 mg, steady state, 20 QD mg, n=1, cancer patients, read-out: Tmax): 8 h
half-life (human, plasma, oral, 40 mg, Day 1, 40 mg, individual subjects): 1090 min
AUC(0-t) (human, plasma, oral, 40 mg, Day 1, 40 mg, n=2, mean, read-out: AUC0-24): 2670 ng·h/mL
Cmax (human, plasma, oral, 40 mg, Day 1, 40 mg, n=2, mean, read-out: Cmax): 192 ng/mL
half-life (human, plasma, oral, 40 mg, Day 1, 40 mg, n=2, mean): 1070 min
Tmax (human, plasma, oral, 40 mg, Day 1, 40 mg, n=2, mean, read-out: Tmax): 5 h
Tmax (human, plasma, oral, 40 mg, Day 15, 40 mg, individual subjects, read-out: Tmax): 4 h
AUC(0-t) (human, plasma, oral, 40 mg, Day 15, 40 mg, n=2, mean, read-out: AUC0-24): 5890 ng·h/mL
